Assay: Phase 1 single ascending dose study with healthy subjects (adverse events)
Type: in vivo, human
Details: for No. of subjects reporting AEs / No. of subjects with AE Abdominal pain / No. of subjects with AE Cough / No. of subjects with AE Diarrhoea / No. of subjects with AE Dizziness / No. of subjects with AE Flushing / No. of subjects with AE Headache / No. of subjects with AE Jaw pain / No. of subjects with AE Muscle spasm / No. of subjects with AE Nausea / No. of subjects with AE Neck pain / No. of subjects with AE Oropharyngeal pain / No. of subjects with AE Pain in extremity / No. of subjects with AE Photophobia / No. of subjects with AE Vomiting / Number of Subjects Reporting AEs By Most Direct Relationship to Study Treatment: Definitely not related / Number of Subjects Reporting AEs By Most Direct Relationship to Study Treatment: Possibly related / Number of Subjects Reporting AEs By Most Direct Relationship to Study Treatment: Probably not related / Number of Subjects Reporting AEs By Most Direct Relationship to Study Treatment: Probably related: 6 subjects
Method: This study was a phase 1, randomized, double-blind, placebo-controlled study of four cohorts of 8 subjects each (2 subjects were assigned to receive placebo, and 6 to receive Compound 1). Each cohort was assigned to receive a single dose level of blinded study medication in an ascending dose fashion; dosing began at 0.1 mg.
All enrolled subjects received a single oral dose of study medication (Compound 1 or placebo). Dose escalation was slowed or discontinued when predefined safety criteria based on peak plasma exposure levels, blood pressure changes, or adverse events (AEs) were met. […] Two lower dose cohorts were added, in which the doses of Compound 1were 0.05 mg and 0.03 respectively.
After each cohort was dosed, the following safety parameters were monitored: vital signs, clinical laboratory tests to include serum chemistry, hematology, and urinalysis, 12-lead ECG, plasma Compound 1 concentration, and AEs. Pharmacokinetic parameters were monitored and calculated for Compound 1.

## O=C(O)COC[C@H]1CC[C@H](COC(=O)N(c2ccccc2)c2ccc(Cl)cc2)CC1 [Compound 1, 2-(((1r,4r)-4-(((4-chlorophenyl)(phenyl)carbamoyloxy)methyl)cyclohexyl)methoxy)acetic acid]
2nd cohort, single oral dose 0.2 mg
  AEs on which dose escalation was discontinued: prolonged nausea and vomiting that was severe in intensity
Single dose 0.1 mg, some subjects experienced nausea, vomiting, headache, and jaw pain
  Tolerability of the dose: tolerated
Single dose 0.2 mg
  Tolerability of the dose: Intolerable AEs
Single oral dose 0.03 mg
  No. of subjects reporting AEs: 2 subjects
  No. of subjects with AE Abdominal pain: 0 subjects
  No. of subjects with AE Cough: 0 subjects
  No. of subjects with AE Diarrhoea: 0 subjects
  No. of subjects with AE Dizziness: 0 subjects
  No. of subjects with AE Flushing: 0 subjects
  No. of subjects with AE Headache: 2 subjects
  No. of subjects with AE Jaw pain: 0 subjects
  No. of subjects with AE Muscle spasm: 0 subjects
  No. of subjects with AE Nausea: 0 subjects
  No. of subjects with AE Neck pain: 0 subjects
  No. of subjects with AE Oropharyngeal pain: 0 subjects
  No. of subjects with AE Pain in extremity: 0 subjects
  No. of subjects with AE Photophobia: 0 subjects
  No. of subjects with AE Vomiting: 0 subjects
  Number of Subjects Reporting AEs By Most Direct Relationship to Study Treatment: Definitely not related: 0 subjects
  Number of Subjects Reporting AEs By Most Direct Relationship to Study Treatment: Possibly related: 2 subjects
  Number of Subjects Reporting AEs By Most Direct Relationship to Study Treatment: Probably not related: 0 subjects
  Number of Subjects Reporting AEs By Most Direct Relationship to Study Treatment: Probably related: 0 subjects
Single oral dose 0.05 mg
  No. of subjects reporting AEs: 5 subjects
  No. of subjects with AE Abdominal pain: 1 subjects
  No. of subjects with AE Cough: 0 subjects
  No. of subjects with AE Diarrhoea: 0 subjects
  No. of subjects with AE Dizziness: 0 subjects
  No. of subjects with AE Flushing: 1 subjects
  No. of subjects with AE Headache: 5 subjects
  No. of subjects with AE Jaw pain: 2 subjects
  No. of subjects with AE Muscle spasm: 0 subjects
  No. of subjects with AE Nausea: 1 subjects
  No. of subjects with AE Neck pain: 0 subjects
  No. of subjects with AE Oropharyngeal pain: 0 subjects
  No. of subjects with AE Pain in extremity: 0 subjects
  No. of subjects with AE Photophobia: 1 subjects
  No. of subjects with AE Vomiting: 0 subjects
  Number of Subjects Reporting AEs By Most Direct Relationship to Study Treatment: Definitely not related: 0 subjects
  Number of Subjects Reporting AEs By Most Direct Relationship to Study Treatment: Possibly related: 5 subjects
  Number of Subjects Reporting AEs By Most Direct Relationship to Study Treatment: Probably not related: 0 subjects
  Number of Subjects Reporting AEs By Most Direct Relationship to Study Treatment: Probably related: 0 subjects
Single oral dose 0.1 mg
  No. of subjects reporting AEs: 6 subjects
  No. of subjects with AE Abdominal pain: 1 subjects
  No. of subjects with AE Cough: 0 subjects
  No. of subjects with AE Diarrhoea: 0 subjects
  No. of subjects with AE Dizziness: 1 subjects
  No. of subjects with AE Flushing: 1 subjects
  No. of subjects with AE Headache: 5 subjects
  No. of subjects with AE Jaw pain: 3 subjects
  No. of subjects with AE Muscle spasm: 0 subjects
  No. of subjects with AE Nausea: 2 subjects
  No. of subjects with AE Neck pain: 1 subjects
  No. of subjects with AE Oropharyngeal pain: 0 subjects
  No. of subjects with AE Pain in extremity: 0 subjects
  No. of subjects with AE Photophobia: 0 subjects
  No. of subjects with AE Vomiting: 2 subjects
  Number of Subjects Reporting AEs By Most Direct Relationship to Study Treatment: Definitely not related: 1 subjects
  Number of Subjects Reporting AEs By Most Direct Relationship to Study Treatment: Possibly related: 4 subjects
  Number of Subjects Reporting AEs By Most Direct Relationship to Study Treatment: Probably not related: 0 subjects
  Number of Subjects Reporting AEs By Most Direct Relationship to Study Treatment: Probably related: 1 subjects
Single oral dose 0.2 mg
  No. of subjects reporting AEs: 6 subjects
  No. of subjects with AE Abdominal pain: 0 subjects
  No. of subjects with AE Cough: 0 subjects
  No. of subjects with AE Diarrhoea: 1 subjects
  No. of subjects with AE Dizziness: 0 subjects
  No. of subjects with AE Flushing: 2 subjects
  No. of subjects with AE Headache: 5 subjects
  No. of subjects with AE Jaw pain: 1 subjects
  No. of subjects with AE Muscle spasm: 1 subjects
  No. of subjects with AE Nausea: 3 subjects
  No. of subjects with AE Neck pain: 0 subjects
  No. of subjects with AE Oropharyngeal pain: 1 subjects
  No. of subjects with AE Pain in extremity: 1 subjects
  No. of subjects with AE Photophobia: 0 subjects
  No. of subjects with AE Vomiting: 6 subjects
  Number of Subjects Reporting AEs By Most Direct Relationship to Study Treatment: Definitely not related: 0 subjects
  Number of Subjects Reporting AEs By Most Direct Relationship to Study Treatment: Possibly related: 0 subjects
  Number of Subjects Reporting AEs By Most Direct Relationship to Study Treatment: Probably not related: 0 subjects
  Number of Subjects Reporting AEs By Most Direct Relationship to Study Treatment: Probably related: 6 subjects
